Assays:
[1] = system: mammary tumors of MMTV-Neu (YD) mice; assay: Treatment of tumor-bearing MMTV-Neu(YD) mice, tumor volume by caliper; type: in vivo; settings: for effect on tumor volume: Iressa 100 mg/Kg/day, day 24; for treated tumors that regress: Iressa 100 mg/Kg/day gastric gavage 24 days
ERK and Akt [2] = assay: Activation of ERK and Akt in tumor lysates of treated mice; type: in vivo; settings: Neu(YD)/b4-1355T versus Neu(YD)/b4-WT tumors
SFKs = assay: Activation of SFKs; type: cell-based
Experimental: (§1) Biochemical studies were performed to study the molecular mechanism by which b4 signaling promotes mammary tumorigenesis.

[3] = system: mammary tumors of MMTV-Neu (YD) mice; assay: Anti-Ki-67 staining of tumor sections from treated MMTV-Neu(YD) mice; type: in vivo
Experimental: Tumor sections were stained by IHC with anti-Ki-67 followed by counterstaining with hematoxylin. Bar=[…].
Tumor sections were stained with anti-Ki-67 Mab, which labels proliferating cells.

ErbB2 [4] = assay: Phosphorylation of ErbB2 (immunoprecipitation / immunoblotting); type: cell-based; settings: for phosphorylation of the P-loop of ErbB2: immunoblotting of total lysates, single agent
Experimental: as §1
Since SFKs can phosphorylate Y845 in the P-loop of the EGF-R, we examined the effect of SFK inhibition on phosphorylation of the corresponding tyrosine in the P-loop of ErbB2.

STAT3 = assay: Phosphorylation of STAT3 in Neu-b4-WT cells; type: cell-based, mouse
Text: Prior studies have linked SFK-mediated phosphorylation of the P-loop of ErbB receptors to JAK-STAT signaling. Since deletion of the b4 signaling domain reduces SFK activation and association with ErbB2 and decreases phosphorylation of the P-loop of ErbB-2, we examined the effect of this deletion on STAT3 activation. Phosphorylation at Y705 is essential for dimerization and activation of STAT3. […] […]. STAT3 S727, which is targeted by ERK, was phosphorylated at similar levels in both types of cells.

c-Jun = assay: Phosphorylation of c-Jun in Neu-b4-WT cells; type: cell-based, mouse
ERK and Akt [5] = assay: Activation of ERK and Akt in Neu-b4 cells in vitro; type: cell-based, mouse; settings: Neu-b4-1355T versus Neu-b4-WT cells
activated ErbB2 = assay: Inhibition of activated ErbB2 (IC50); type: cell-based; settings: Neu-b4-WT versus Neu-b4-1355T cells in vitro
activated ErbB2, sequence (P04626 23-1255): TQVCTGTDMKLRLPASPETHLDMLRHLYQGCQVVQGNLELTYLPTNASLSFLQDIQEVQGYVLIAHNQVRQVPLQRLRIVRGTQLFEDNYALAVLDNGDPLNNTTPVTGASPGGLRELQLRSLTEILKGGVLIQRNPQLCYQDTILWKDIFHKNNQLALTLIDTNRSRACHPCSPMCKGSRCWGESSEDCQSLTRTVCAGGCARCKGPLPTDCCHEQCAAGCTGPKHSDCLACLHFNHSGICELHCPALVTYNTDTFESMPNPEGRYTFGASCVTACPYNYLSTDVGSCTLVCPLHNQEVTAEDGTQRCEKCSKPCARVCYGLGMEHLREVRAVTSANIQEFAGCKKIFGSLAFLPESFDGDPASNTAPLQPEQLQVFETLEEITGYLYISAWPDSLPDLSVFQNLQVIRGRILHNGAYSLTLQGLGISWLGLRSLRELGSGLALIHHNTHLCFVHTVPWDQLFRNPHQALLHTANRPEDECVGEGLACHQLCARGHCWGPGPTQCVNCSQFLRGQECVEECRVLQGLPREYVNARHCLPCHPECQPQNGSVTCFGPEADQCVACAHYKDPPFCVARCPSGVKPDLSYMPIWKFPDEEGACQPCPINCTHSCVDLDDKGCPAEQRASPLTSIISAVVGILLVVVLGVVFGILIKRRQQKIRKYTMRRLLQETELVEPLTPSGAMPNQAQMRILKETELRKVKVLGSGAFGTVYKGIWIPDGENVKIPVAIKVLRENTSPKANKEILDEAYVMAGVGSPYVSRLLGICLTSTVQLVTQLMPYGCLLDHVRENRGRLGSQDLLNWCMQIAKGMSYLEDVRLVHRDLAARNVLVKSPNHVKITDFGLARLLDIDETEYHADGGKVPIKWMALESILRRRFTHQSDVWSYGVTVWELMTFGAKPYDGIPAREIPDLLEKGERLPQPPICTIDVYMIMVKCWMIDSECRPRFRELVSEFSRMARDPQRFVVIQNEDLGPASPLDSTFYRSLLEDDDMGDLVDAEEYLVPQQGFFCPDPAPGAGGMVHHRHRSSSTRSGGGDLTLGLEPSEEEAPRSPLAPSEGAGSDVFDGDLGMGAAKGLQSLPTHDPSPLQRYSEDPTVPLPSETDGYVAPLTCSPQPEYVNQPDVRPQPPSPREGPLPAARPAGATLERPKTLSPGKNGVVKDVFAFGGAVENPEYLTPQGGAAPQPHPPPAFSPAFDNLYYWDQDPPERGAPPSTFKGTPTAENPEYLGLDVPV

[6] = system: mammary tumors of Neu(YD) mice; assay: Tumor apoptosis in treated mice; type: in vivo
Neu-b4-WT cells [7] = assay: Matrigel invasion assay in response to FBS; settings: Iressa 10 μM
b4 = assay: Tyrosine phosphorylation of b4; type: cell-based
Experimental: as §1

ErbB2 [8] = assay: Activation of ErbB2 in tumors of treated mice; settings: Neu(YD)/b4-WT and Neu(YD)/b4-1355T tumors
[9] = system: tumor cells expressing wild-type b4; assay: Assembly of adherens and tight junctions in primary ErbB2-transformed tumor cells; type: cell-based, mouse
Text: Tight junctions have emerged as key regulators of mammalian epithelial polarity and adhesion. Prompted by the observation that deletion of the b4 signaling domain increases the organization of tight junctions in mammary tumors, we used an ex vivo approach to examine the effect of b4 signaling on epithelial adhesion and polarity.

Neu-b4-WT cells [10] = assay: Assembly of adherens and tight junctions in isogenic Neu-b4-WT cells; settings: Neu-b4-WT cells in culture
Text: To examine if the b4 integrin disrupts epithelial adhesion by a direct signaling mechanism, we generated isogenic Neu-transformed mammary tumor cells expressing either wildtype or mutant b4 by using an RNAi-reconstitution strategy.

c-Jun and STAT3 = assay: Activation of c-Jun and STAT3 in tumor lysates of treated mice; type: in vivo; settings: both types of tumors

COc1cccc2c1C(=O)c1c(O)c3c(c(O)c1C2=O)C[C@@](O)(C(=O)CO)C[C@@H]3O[C@H]1C[C@H](N)[C@H](O)[C@H](C)O1 [Doxorubicin]
tumor regression ([1]; Neu(YD)/b4-WT and Neu(YD)/b4-1355T mice, single dose 10 mg/Kg): failed to induce tumor regression in either type of mouse

COc1cc2ncnc(Nc3ccc(F)c(Cl)c3)c2cc1OCCCN1CCOCC1 [Iressa, Gefitinib]
activation of ERK and Akt in tumor lysates (ERK and Akt [2]): inhibited activation of ERK and Akt in Neu(YD)/b4-1355T tumors by an extent larger than it did in Neu(YD)/b4-WT tumors | activation of SFKs (SFKs): did not affect | tumor cell proliferation ([3]; Neu(YD)/b4-1355T mice): inhibited tumor cell proliferation | tumor cell proliferation ([3]; Neu(YD)/b4-WT mice): more modest inhibitory effect | phosphorylation of ErbB2 at its major autophosphorylation site (ErbB2 [4]): suppressed | tyrosine phosphorylation of ErbB2 (ErbB2 [4]): suppressed | phosphorylation of the P-loop of ErbB2 (ErbB2 [4]): inhibit phosphorylation of the P-loop of ErbB2 to a significant extent | phosphorylation of STAT3 (STAT3): inhibited phosphorylation of STAT3 in Neu-b4-WT cells at concentrations higher than those necessary to suppress activation of ERK | phosphorylation of c-Jun (c-Jun): inhibited phosphorylation of c-Jun in Neu-b4-WT cells, but at concentrations higher than those required to suppress activation of ERK | activation of ERK and Akt in vitro (ERK and Akt [5]): at doses lower than in Neu-b4-WT cells | apparent IC50, comparison of cell types (activated ErbB2): equal apparent IC50 | tumor apoptosis, comparison of genotypes ([6]; Neu(YD)/b4-1355T versus Neu(YD)/b4-WT mice): increased tumor apoptosis in Neu(YD)/b4-1355T mice to a larger extent than it did in Neu(YD)/b4-WT mice | overall apoptotic rates ([6]; both genotypes, treated): less than 1% | Matrigel invasion (Neu-b4-WT cells [7]): prevented their invasion | tyrosine phosphorylation of b4 (b4): suppressed | activation of ErbB2 in tumors (ErbB2 [8]): suppressed activation of ErbB2 in both types of tumors | reassembly of adherens and tight junctions [9]: promoted reassembly of both adherens and tight junctions | organization of adherens and tight junctions (Neu-b4-WT cells [10]): failed to organize both types of junctions, unless they were treated with Iressa | effect on tumor volume ([1]; Neu(YD)/b4-1355T tumors): induced regression | effect on tumor volume ([1]; Neu(YD)/b4-WT tumors): only reduced the rate of growth | treated tumors that regress ([1]; control group (wild-type b4 mice)): ~20% | treated tumors that regress ([1]; tumors arising in b4-mutant mice): About 80% | activation of c-Jun and STAT3 in tumor lysates (c-Jun and STAT3): did not suppress but seemed to increase to a small extent

CC(C)(C)n1nc(-c2ccc(Cl)cc2)c2c(N)ncnc21 [PP2]
activation of SFKs (SFKs): exerted the opposite effects | phosphorylation of ErbB2 at its major autophosphorylation site (ErbB2 [4]): exerted the opposite effects | tyrosine phosphorylation of ErbB2 (ErbB2 [4]): only partially inhibited | phosphorylation of the P-loop of ErbB2 (ErbB2 [4]): inhibit phosphorylation of the P-loop of ErbB2 to a significant extent | tyrosine phosphorylation of b4 (b4): suppressed
